# Data published in US20250366474A1, “USE OF 4,5-DIMETHYLTHIAZOLE IN PROMOTING PLANT GROWTH” (HUAZHONG AGRICULTURAL UNIVERSITY, priority 2024, published 2025).
# What was measured:
# [1] = tested on: rice seedlings; assay: 4,5-dimethylthiazole root drenching: rice seedling dry matter mass and chlorophyll content; format: in vivo; conditions: for Root System Biomass / Shoot Part Biomass / Total Biomass / Total Chlorophyll Content: 30 days of seedling cultivation; for Total Chlorophyll Content: leaves; for Root System Relative Value / Shoot Part Relative Value / Total Chlorophyll Content Relative Value / Total Relative Value: 30 days, vs Control 0 mg/L
# Procedure: Five root irrigation solution concentrations (0, 20, 50, 100 and 200 mg/L) and three types of root drenching frequency (2, 4, and 6 times) were set. 4,5-dimethylthiazole of different mass was dissolved in distilled water to obtain root irrigation solutions at different concentrations. After normal rice seed soaking and accelerated germination, rice substrate soil was loaded 2 cm away from a seedling tray opening, gently compacted, and watered with pure water to be wet. A rice seedling nursery substrate was “rice seedling nursery substrate” purchased from Guangzhou Shengsheng Agriculture Co., Ltd., with main ingredients including peat, vermiculite and yellow mud. Two seeds were sowed in each hole on a substrate surface, covered with the substrate soil again to the seedling tray opening, and watered to be wet. Three days after the rice seedling emergence, the root irrigation solutions at different concentrations was applied once every five days, until there was a water layer of 5 mm on a surface of the substrate. Each treatment was applied with a consistent amount. The drenching was conducted during cooler evening hours to minimize evaporation. After 30 days of seedling cultivation, nine rice samples were taken from each treatment, divided into shoot parts and root system, which were dried and then weighed; and leaves were taken from another nine rice plants to measure chlorophyll content.
# [2] = tested on: rice seedlings; assay: 4,5-dimethylthiazole seed soaking: rice seedling dry matter mass and chlorophyll content; format: in vivo, rice (Heliangyou 332); conditions: for Root System Biomass / Shoot Part Biomass / Total Biomass / Total Chlorophyll Content: 30 days of seedling cultivation; for Total Chlorophyll Content: leaves; for Root System Relative Value / Shoot Part Relative Value / Total Chlorophyll Content Relative Value / Total Relative Value: 30 days, vs distilled water soaking
# Procedure: 4,5-dimethylthiazole of different weights were dissolved in distilled water to obtain seed soaking agents. Taking seed soaking with distilled water as a control, four seed soaking concentrations (0, 50, 100 and 200 mg/L) were set. Plump and healthy rice seeds (Heliangyou 332) were selected and sterilized with 0.5% sodium hypochlorite for 30 min, and then each seed soaking agent was added in a mass ratio of the seed soaking agent to seed of 1:20. The seeds were soaked in darkness under 28-30° C. condition for 48 h until radicle emergence. The seed soaking solutions were changed every 12 h. Rice substrate soil was loaded 2 cm away from a seedling tray opening, gently compacted, and watered with pure water to be wet. A rice seedling nursery substrate was “rice seedling nursery substrate” purchased from Guangzhou Shengsheng Agriculture Co., Ltd., with main ingredients including peat, vermiculite and yellow mud. Two seeds were sowed in each hole on a substrate surface, covered with the substrate soil again to the seedling tray opening, and watered to be wet. After 30 days of seedling cultivation, nine rice samples were taken from each treatment, divided into shoot parts and root system, which were dried and then weighed; and leaves were taken from another nine rice plants to measure chlorophyll content. […] Regarding the biomass of the shoot parts and the chlorophyll content, the seed soaking concentration 50 mg/L rendered the best effect (Table 2).
# [3] = root drenching 2 Times, 20 mg/L
# [4] = root drenching 2 Times, 50 mg/L
# [5] = root drenching 2 Times, 100 mg/L
# [6] = root drenching 2 Times, 200 mg/L
# [7] = root drenching 4 Times, 20 mg/L
# [8] = root drenching 4 Times, 50 mg/L
# [9] = root drenching 4 Times, 100 mg/L
# [10] = root drenching 4 Times, 200 mg/L
# [11] = root drenching 6 Times, 20 mg/L
# [12] = root drenching 6 Times, 50 mg/L
# [13] = root drenching 6 Times, 100 mg/L
# [14] = root drenching 6 Times, 200 mg/L
compound,measurement,setting,value
"Cc1ncsc1C [4,5-dimethylthiazole]",Root System Biomass,[1]; [3],7.5 mg/plant
same,Shoot Part Biomass,[1]; [3],82.9 mg/plant
same,Total Biomass,[1]; [3],90.4 mg/plant
same,Total Chlorophyll Content,[1]; [3],4.77 mg/g
same,Root System Relative Value,[1]; [3],36.8%
same,Shoot Part Relative Value,[1]; [3],35.9%
same,Total Chlorophyll Content Relative Value,[1]; [3],27.8%
same,Total Relative Value,[1]; [3],36.0%
same,Root System Biomass,[1]; [4],8.0 mg/plant
same,Shoot Part Biomass,[1]; [4],79.8 mg/plant
same,Total Biomass,[1]; [4],87.9 mg/plant
same,Total Chlorophyll Content,[1]; [4],4.29 mg/g
same,Root System Relative Value,[1]; [4],46.7%
same,Shoot Part Relative Value,[1]; [4],30.8%
same,Total Chlorophyll Content Relative Value,[1]; [4],15.0%
same,Total Relative Value,[1]; [4],32.1%
same,Root System Biomass,[1]; [5],8.3 mg/plant
same,Shoot Part Biomass,[1]; [5],76.3 mg/plant
same,Total Biomass,[1]; [5],84.6 mg/plant
same,Total Chlorophyll Content,[1]; [5],3.82 mg/g
same,Root System Relative Value,[1]; [5],52.2%
same,Shoot Part Relative Value,[1]; [5],25.0%
same,Total Chlorophyll Content Relative Value,[1]; [5],2.5%
same,Total Relative Value,[1]; [5],27.2%
same,Root System Biomass,[1]; [6],6.3 mg/plant
same,Shoot Part Biomass,[1]; [6],62.9 mg/plant
same,Total Biomass,[1]; [6],69.2 mg/plant
same,Total Chlorophyll Content,[1]; [6],4.51 mg/g
same,Root System Relative Value,[1]; [6],15.6%
same,Shoot Part Relative Value,[1]; [6],3.1%
same,Total Chlorophyll Content Relative Value,[1]; [6],20.8%
same,Total Relative Value,[1]; [6],4.1%
same,Root System Biomass,[1]; [7],7.0 mg/plant
same,Shoot Part Biomass,[1]; [7],74.5 mg/plant
same,Total Biomass,[1]; [7],81.5 mg/plant
same,Total Chlorophyll Content,[1]; [7],4.15 mg/g
same,Root System Relative Value,[1]; [7],27.7%
same,Shoot Part Relative Value,[1]; [7],22.1%
same,Total Chlorophyll Content Relative Value,[1]; [7],11.2%
same,Total Relative Value,[1]; [7],22.6%
same,Root System Biomass,[1]; [8],8.0 mg/plant
same,Shoot Part Biomass,[1]; [8],79.9 mg/plant
same,Total Biomass,[1]; [8],87.9 mg/plant
same,Total Chlorophyll Content,[1]; [8],4.09 mg/g
same,Root System Relative Value,[1]; [8],46.3%
same,Shoot Part Relative Value,[1]; [8],30.9%
same,Total Chlorophyll Content Relative Value,[1]; [8],9.8%
same,Total Relative Value,[1]; [8],32.2%
same,Root System Biomass,[1]; [9],7.7 mg/plant
same,Shoot Part Biomass,[1]; [9],79.6 mg/plant
same,Total Biomass,[1]; [9],87.3 mg/plant
same,Total Chlorophyll Content,[1]; [9],3.82 mg/g
same,Root System Relative Value,[1]; [9],41.6%
same,Shoot Part Relative Value,[1]; [9],30.4%
same,Total Chlorophyll Content Relative Value,[1]; [9],2.3%
same,Total Relative Value,[1]; [9],31.3%
same,Root System Biomass,[1]; [10],5.4 mg/plant
same,Shoot Part Biomass,[1]; [10],70.1 mg/plant
same,Total Biomass,[1]; [10],75.5 mg/plant
same,Total Chlorophyll Content,[1]; [10],3.89 mg/g
same,Root System Relative Value,[1]; [10],−0.7%
same,Shoot Part Relative Value,[1]; [10],14.8%
same,Total Chlorophyll Content Relative Value,[1]; [10],4.2%
same,Total Relative Value,[1]; [10],13.6%
same,Root System Biomass,[1]; [11],8.6 mg/plant
same,Shoot Part Biomass,[1]; [11],82.7 mg/plant
same,Total Biomass,[1]; [11],91.3 mg/plant
same,Total Chlorophyll Content,[1]; [11],4.03 mg/g
same,Root System Relative Value,[1]; [11],51.8%
same,Shoot Part Relative Value,[1]; [11],35.4%
same,Total Chlorophyll Content Relative Value,[1]; [11],8.1%
same,Total Relative Value,[1]; [11],37.3%
same,Root System Biomass,[1]; [12],7.9 mg/plant
same,Shoot Part Biomass,[1]; [12],85.8 mg/plant
same,Total Biomass,[1]; [12],93.7 mg/plant
same,Total Chlorophyll Content,[1]; [12],4.32 mg/g
same,Root System Relative Value,[1]; [12],44.7%
same,Shoot Part Relative Value,[1]; [12],40.6%
same,Total Chlorophyll Content Relative Value,[1]; [12],15.9%
same,Total Relative Value,[1]; [12],41.0%
same,Root System Biomass,[1]; [13],7.1 mg/plant
same,Shoot Part Biomass,[1]; [13],74.7 mg/plant
same,Total Biomass,[1]; [13],81.8 mg/plant
same,Total Chlorophyll Content,[1]; [13],4.20 mg/g
same,Root System Relative Value,[1]; [13],30.2%
same,Shoot Part Relative Value,[1]; [13],22.4%
same,Total Chlorophyll Content Relative Value,[1]; [13],12.7%
same,Total Relative Value,[1]; [13],23.1%
same,Root System Biomass,[1]; [14],7.1 mg/plant
same,Shoot Part Biomass,[1]; [14],63.5 mg/plant
same,Total Biomass,[1]; [14],70.6 mg/plant
same,Total Chlorophyll Content,[1]; [14],3.79 mg/g
same,Root System Relative Value,[1]; [14],29.7%
same,Shoot Part Relative Value,[1]; [14],4.1%
same,Total Chlorophyll Content Relative Value,[1]; [14],1.6%
same,Total Relative Value,[1]; [14],6.2%
same,Root System Biomass,[2]; seed soaking 50 mg/L,8.3 mg/plant
same,Shoot Part Biomass,[2]; seed soaking 50 mg/L,80.7 mg/plant
same,Total Biomass,[2]; seed soaking 50 mg/L,89.1 mg/plant
same,Total Chlorophyll Content,[2]; seed soaking 50 mg/L,4.08 mg/g
same,Root System Relative Value,[2]; seed soaking 50 mg/L,52.6%
same,Shoot Part Relative Value,[2]; seed soaking 50 mg/L,32.3%
same,Total Chlorophyll Content Relative Value,[2]; seed soaking 50 mg/L,9.3%
same,Total Relative Value,[2]; seed soaking 50 mg/L,34.0%
same,Root System Biomass,[2]; seed soaking 100 mg/L,8.6 mg/plant
same,Shoot Part Biomass,[2]; seed soaking 100 mg/L,78.4 mg/plant
same,Total Biomass,[2]; seed soaking 100 mg/L,87.1 mg/plant
same,Total Chlorophyll Content,[2]; seed soaking 100 mg/L,3.98 mg/g
same,Root System Relative Value,[2]; seed soaking 100 mg/L,58.2%
same,Shoot Part Relative Value,[2]; seed soaking 100 mg/L,28.5%
same,Total Chlorophyll Content Relative Value,[2]; seed soaking 100 mg/L,6.7%
same,Total Relative Value,[2]; seed soaking 100 mg/L,31.0%
same,Root System Biomass,[2]; seed soaking 200 mg/L,7.8 mg/plant
same,Shoot Part Biomass,[2]; seed soaking 200 mg/L,81.1 mg/plant
same,Total Biomass,[2]; seed soaking 200 mg/L,88.9 mg/plant
same,Total Chlorophyll Content,[2]; seed soaking 200 mg/L,3.99 mg/g
same,Root System Relative Value,[2]; seed soaking 200 mg/L,42.9%
same,Shoot Part Relative Value,[2]; seed soaking 200 mg/L,32.9%
same,Total Chlorophyll Content Relative Value,[2]; seed soaking 200 mg/L,7.0%
same,Total Relative Value,[2]; seed soaking 200 mg/L,33.7%
same,"effect on biomass of the shoot parts and chlorophyll content, comparison of seed soaking concentrations",[2]; seed soaking concentration 50 mg/L,best effect
